# Measured values as given in article PMC4823954, “From fighting depression to conquering tumors: a novel tricyclic thiazepine compound as a tubulin polymerization inhibitor” (Cell Death & Disease, 2016).
# How the values were obtained:
# Experiment in all cases: KINOMEscan
# Type in all cases: binding
# Settings in all cases: read-out: % Ctrl
# [1] = target: T1, ABL1(T315I)-phosphorylated (Homo sapiens, UniProt P00519, T315I)
# T1 construct: purchased DiscoveRx KINOMEscan
# INSRR = target: T2, INSRR (Homo sapiens, UniProt P14616)
# T2 construct: purchased DiscoveRx KINOMEscan
# Procedure, shortened: (§1)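 Competition binding panel of 442 non-mutant kinases: test compound at 5 and 10 μM competed with an active-site-directed ligand for 1 h with shaking. Bound kinase was eluted with 0.5 μM ligand and quantified by qPCR; %Ctrl = (compound − positive control)/(DMSO − positive control) × 100, lower meaning tighter binding.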
# PIK3CA(H1047L) = target: T3, PIK3CA(H1047L) (Homo sapiens, UniProt P42336, H1047L)
# T3 construct: purchased DiscoveRx KINOMEscan
# CAMK2A = target: T4, CAMK2A (Homo sapiens, UniProt Q9UQM7)
# T4 construct: purchased DiscoveRx KINOMEscan
# T4 sequence (Q9UQM7 whole entry): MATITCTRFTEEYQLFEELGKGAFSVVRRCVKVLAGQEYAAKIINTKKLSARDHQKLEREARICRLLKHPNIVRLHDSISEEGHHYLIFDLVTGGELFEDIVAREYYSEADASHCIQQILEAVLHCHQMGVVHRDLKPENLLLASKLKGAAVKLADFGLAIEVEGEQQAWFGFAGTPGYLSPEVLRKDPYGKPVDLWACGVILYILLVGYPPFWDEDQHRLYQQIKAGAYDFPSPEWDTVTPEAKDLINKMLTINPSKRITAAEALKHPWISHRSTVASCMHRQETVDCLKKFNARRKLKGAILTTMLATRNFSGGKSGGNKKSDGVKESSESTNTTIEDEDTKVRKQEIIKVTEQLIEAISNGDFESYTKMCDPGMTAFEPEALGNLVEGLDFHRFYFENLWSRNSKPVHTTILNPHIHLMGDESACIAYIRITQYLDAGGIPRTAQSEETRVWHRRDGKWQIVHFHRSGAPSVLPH
# Procedure, shortened: as §1
# EPHB6 = target: T5, EPHB6 (Homo sapiens, UniProt O15197)
# T5 construct: purchased DiscoveRx KINOMEscan
# Procedure, shortened: as §1
# KIT(D816V) = target: T6, KIT(D816V) (Homo sapiens, UniProt P10721, D816V)
# T6 construct: purchased DiscoveRx KINOMEscan
# STK39 = target: T7, STK39 (Homo sapiens, UniProt Q9UEW8)
# T7 construct: purchased DiscoveRx KINOMEscan
# Procedure, shortened: as §1
# PRKCI = target: T8, PRKCI (Homo sapiens, UniProt P41743)
# T8 construct: purchased DiscoveRx KINOMEscan
# Procedure, shortened: as §1
# PIM2 = target: T9, PIM2 (Homo sapiens, UniProt Q9P1W9)
# T9 construct: purchased DiscoveRx KINOMEscan
# T9 sequence (Q9P1W9 whole entry): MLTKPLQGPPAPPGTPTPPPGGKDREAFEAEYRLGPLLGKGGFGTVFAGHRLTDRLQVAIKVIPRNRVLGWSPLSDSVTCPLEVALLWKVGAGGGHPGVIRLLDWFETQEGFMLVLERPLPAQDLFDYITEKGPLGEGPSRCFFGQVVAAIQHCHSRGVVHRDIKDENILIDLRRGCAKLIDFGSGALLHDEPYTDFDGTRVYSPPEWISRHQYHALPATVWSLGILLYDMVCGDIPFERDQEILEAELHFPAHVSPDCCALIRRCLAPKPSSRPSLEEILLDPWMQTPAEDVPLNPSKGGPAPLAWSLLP
# Procedure, shortened: as §1
# CLK4 = target: T10, CLK4 (Homo sapiens, UniProt Q9HAZ1)
# T10 construct: purchased DiscoveRx KINOMEscan
# Procedure, shortened: as §1
# YSK4 = target: T11, YSK4 (Homo sapiens, UniProt Q56UN5)
# T11 construct: purchased DiscoveRx KINOMEscan
# T11 sequence (Q56UN5 whole entry): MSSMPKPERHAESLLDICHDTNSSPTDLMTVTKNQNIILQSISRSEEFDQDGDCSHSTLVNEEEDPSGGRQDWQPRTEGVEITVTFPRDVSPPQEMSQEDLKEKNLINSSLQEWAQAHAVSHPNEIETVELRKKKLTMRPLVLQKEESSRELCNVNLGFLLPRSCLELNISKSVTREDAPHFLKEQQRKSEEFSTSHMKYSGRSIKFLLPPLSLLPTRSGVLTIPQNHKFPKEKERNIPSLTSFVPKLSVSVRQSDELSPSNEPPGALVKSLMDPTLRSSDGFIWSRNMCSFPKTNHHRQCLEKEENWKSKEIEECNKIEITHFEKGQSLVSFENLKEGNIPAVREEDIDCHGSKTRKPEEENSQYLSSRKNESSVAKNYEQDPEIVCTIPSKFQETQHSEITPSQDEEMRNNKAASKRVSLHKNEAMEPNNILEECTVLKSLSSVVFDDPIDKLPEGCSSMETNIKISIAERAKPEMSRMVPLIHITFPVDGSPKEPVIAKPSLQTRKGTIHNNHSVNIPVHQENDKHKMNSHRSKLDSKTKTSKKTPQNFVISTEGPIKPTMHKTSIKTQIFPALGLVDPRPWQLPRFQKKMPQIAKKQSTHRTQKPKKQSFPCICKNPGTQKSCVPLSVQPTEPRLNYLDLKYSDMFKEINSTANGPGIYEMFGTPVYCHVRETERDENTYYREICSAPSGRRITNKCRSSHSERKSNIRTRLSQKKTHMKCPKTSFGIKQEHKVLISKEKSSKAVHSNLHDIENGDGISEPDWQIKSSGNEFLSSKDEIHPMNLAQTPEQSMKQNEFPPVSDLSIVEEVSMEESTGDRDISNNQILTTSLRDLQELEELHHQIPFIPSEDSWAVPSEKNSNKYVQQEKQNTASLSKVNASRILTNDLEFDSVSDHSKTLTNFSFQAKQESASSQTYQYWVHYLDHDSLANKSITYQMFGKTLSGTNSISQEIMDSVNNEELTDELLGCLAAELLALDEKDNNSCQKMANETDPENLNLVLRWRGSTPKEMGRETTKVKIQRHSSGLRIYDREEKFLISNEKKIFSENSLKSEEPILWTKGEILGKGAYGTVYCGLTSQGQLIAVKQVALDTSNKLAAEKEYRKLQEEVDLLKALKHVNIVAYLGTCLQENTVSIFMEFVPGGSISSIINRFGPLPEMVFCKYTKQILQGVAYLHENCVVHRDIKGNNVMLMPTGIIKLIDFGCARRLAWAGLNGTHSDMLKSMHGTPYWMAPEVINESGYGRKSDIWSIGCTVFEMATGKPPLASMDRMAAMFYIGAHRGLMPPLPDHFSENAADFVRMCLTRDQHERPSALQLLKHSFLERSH
# Procedure, shortened: as §1
# PCTK3 = target: T12, PCTK3 (Homo sapiens, UniProt Q07002)
# T12 construct: purchased DiscoveRx KINOMEscan
# Procedure, shortened: as §1
# p38-delta = target: T13, p38-delta (Homo sapiens, UniProt O15264)
# T13 construct: purchased DiscoveRx KINOMEscan
# T13 sequence (O15264 whole entry): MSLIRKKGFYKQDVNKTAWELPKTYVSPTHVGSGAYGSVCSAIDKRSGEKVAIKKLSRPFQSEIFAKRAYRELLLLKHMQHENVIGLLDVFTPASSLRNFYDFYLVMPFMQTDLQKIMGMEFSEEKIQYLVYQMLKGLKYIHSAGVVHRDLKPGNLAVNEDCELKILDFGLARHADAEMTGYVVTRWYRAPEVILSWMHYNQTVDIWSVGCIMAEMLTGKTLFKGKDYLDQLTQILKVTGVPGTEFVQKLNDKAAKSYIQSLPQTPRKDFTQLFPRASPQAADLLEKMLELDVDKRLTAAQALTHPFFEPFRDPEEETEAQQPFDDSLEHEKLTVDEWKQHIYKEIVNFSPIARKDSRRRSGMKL
# Procedure, shortened: as §1
# ERBB3 = target: T14, ERBB3 (Homo sapiens, UniProt P21860)
# T14 construct: purchased DiscoveRx KINOMEscan
# T14 sequence (P21860 20-1342): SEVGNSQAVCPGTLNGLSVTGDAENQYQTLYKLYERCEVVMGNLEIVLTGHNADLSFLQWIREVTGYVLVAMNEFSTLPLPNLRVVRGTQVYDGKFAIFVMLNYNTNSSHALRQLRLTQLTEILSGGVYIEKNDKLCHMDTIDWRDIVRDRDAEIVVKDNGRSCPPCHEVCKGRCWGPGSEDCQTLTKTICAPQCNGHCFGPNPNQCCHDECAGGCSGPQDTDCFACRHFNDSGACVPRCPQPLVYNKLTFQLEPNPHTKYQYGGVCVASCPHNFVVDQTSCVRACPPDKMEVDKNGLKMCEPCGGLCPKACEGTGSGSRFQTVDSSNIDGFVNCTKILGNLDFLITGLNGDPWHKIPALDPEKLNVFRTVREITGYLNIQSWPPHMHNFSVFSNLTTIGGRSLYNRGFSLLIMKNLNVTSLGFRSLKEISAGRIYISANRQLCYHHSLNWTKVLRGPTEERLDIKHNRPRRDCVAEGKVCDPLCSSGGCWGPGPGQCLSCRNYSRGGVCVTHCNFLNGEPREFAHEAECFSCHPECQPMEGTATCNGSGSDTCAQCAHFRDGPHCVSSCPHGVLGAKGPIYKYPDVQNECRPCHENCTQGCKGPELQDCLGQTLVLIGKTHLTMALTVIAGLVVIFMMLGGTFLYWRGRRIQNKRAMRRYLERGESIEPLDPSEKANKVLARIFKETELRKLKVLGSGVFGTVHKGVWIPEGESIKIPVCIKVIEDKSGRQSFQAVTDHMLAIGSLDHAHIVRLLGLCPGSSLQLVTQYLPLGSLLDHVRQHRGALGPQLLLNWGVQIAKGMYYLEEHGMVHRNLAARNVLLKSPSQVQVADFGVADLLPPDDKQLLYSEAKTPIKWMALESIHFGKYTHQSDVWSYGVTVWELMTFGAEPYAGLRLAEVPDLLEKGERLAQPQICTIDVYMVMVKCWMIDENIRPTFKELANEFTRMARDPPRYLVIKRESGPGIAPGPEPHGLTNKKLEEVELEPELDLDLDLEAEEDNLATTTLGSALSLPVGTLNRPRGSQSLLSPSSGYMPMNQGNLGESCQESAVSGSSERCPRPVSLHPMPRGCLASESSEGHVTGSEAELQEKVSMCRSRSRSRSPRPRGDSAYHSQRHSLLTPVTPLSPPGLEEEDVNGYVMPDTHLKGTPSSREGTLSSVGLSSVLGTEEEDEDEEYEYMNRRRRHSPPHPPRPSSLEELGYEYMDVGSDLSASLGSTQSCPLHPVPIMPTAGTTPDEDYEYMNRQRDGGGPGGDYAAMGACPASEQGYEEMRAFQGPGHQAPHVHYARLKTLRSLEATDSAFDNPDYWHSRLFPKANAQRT
# Procedure, shortened: as §1
# ULK3 = target: T15, ULK3 (Homo sapiens, UniProt Q6PHR2)
# T15 construct: purchased DiscoveRx KINOMEscan
# Procedure, shortened: as §1
# JNK2 = target: T16, JNK2 (Homo sapiens, UniProt P45984)
# T16 construct: purchased DiscoveRx KINOMEscan
# T16 sequence (P45984 whole entry): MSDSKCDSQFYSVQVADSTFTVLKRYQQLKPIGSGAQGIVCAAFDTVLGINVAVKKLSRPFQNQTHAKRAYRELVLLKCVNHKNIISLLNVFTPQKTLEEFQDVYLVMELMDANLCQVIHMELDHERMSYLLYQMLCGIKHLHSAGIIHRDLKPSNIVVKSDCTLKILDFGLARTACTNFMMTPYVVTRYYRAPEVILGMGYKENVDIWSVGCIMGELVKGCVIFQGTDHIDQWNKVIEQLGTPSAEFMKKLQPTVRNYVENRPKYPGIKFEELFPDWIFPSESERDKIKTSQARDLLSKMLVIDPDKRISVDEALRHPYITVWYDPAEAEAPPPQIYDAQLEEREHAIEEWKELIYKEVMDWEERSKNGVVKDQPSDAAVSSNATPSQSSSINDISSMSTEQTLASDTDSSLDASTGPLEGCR
# Procedure, shortened: as §1
# PIK3CD = target: T17, PIK3CD (Homo sapiens, UniProt O00329)
# T17 construct: purchased DiscoveRx KINOMEscan
# Procedure, shortened: as §1
# CTK = target: T18, CTK (Homo sapiens, UniProt P42679)
# T18 construct: purchased DiscoveRx KINOMEscan
# Procedure, shortened: as §1
# STK33 = target: T19, STK33 (Homo sapiens, UniProt Q9BYT3)
# T19 construct: purchased DiscoveRx KINOMEscan
# Procedure, shortened: as §1
# DAPK1 = target: T20, DAPK1 (Homo sapiens, UniProt P53355)
# T20 construct: purchased DiscoveRx KINOMEscan
# Procedure, shortened: as §1
# CAMK2G = target: T21, CAMK2G (Homo sapiens, UniProt Q13555)
# T21 construct: purchased DiscoveRx KINOMEscan
# Procedure, shortened: as §1
# FLT3(R834Q) = target: T22, FLT3(R834Q) (Homo sapiens, UniProt P36888, R834Q)
# T22 construct: purchased DiscoveRx KINOMEscan
# PIK4CB = target: T23, PIK4CB (Homo sapiens, UniProt Q9UBF8)
# T23 construct: purchased DiscoveRx KINOMEscan
# T23 sequence (Q9UBF8 whole entry): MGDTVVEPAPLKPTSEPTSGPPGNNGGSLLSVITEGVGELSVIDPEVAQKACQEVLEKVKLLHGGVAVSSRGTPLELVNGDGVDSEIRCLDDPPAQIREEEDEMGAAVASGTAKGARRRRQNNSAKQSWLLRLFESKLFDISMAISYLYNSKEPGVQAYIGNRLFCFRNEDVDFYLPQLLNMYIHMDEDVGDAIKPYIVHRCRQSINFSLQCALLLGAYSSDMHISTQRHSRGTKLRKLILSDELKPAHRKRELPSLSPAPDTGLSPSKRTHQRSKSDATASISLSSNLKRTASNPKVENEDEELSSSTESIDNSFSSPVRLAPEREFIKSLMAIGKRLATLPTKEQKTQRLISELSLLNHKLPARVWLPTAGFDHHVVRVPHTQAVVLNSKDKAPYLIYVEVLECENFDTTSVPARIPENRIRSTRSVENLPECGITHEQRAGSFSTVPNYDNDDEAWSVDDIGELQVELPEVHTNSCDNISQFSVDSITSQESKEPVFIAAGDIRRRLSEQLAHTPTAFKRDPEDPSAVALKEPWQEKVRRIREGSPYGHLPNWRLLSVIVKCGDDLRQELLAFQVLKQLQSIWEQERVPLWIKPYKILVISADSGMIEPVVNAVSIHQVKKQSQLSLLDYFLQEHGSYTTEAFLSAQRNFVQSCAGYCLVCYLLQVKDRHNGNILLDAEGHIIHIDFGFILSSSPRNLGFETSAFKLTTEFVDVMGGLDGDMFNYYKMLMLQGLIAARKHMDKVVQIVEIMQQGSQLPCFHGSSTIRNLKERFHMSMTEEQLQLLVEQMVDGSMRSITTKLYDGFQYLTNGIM
# Procedure, shortened: as §1
# MST4 = target: T24, MST4 (Homo sapiens, UniProt Q9P289)
# T24 construct: purchased DiscoveRx KINOMEscan
# Procedure, shortened: as §1
# GAK = target: T25, GAK (Homo sapiens, UniProt O14976)
# T25 construct: purchased DiscoveRx KINOMEscan
# Procedure, shortened: as §1
# FLT3 = target: T26, FLT3 (Homo sapiens, UniProt P36888)
# T26 construct: purchased DiscoveRx KINOMEscan
# Procedure, shortened: as §1
# SGK3 = target: T27, SGK3 (Homo sapiens, UniProt Q96BR1)
# T27 construct: purchased DiscoveRx KINOMEscan
# Procedure, shortened: as §1
# PLK1 = target: T28, PLK1 (Homo sapiens, UniProt P53350)
# T28 construct: purchased DiscoveRx KINOMEscan
# Procedure, shortened: as §1
# RIOK3 = target: T29, RIOK3 (Homo sapiens, UniProt O14730)
# T29 construct: purchased DiscoveRx KINOMEscan
# Procedure, shortened: as §1
# LIMK1 = target: T30, LIMK1 (Homo sapiens, UniProt P53667)
# T30 construct: purchased DiscoveRx KINOMEscan
# Procedure, shortened: as §1
smiles,measurement,setting,value
"Cc1ccc(C2=Nc3cccnc3S(=O)(=O)c3ccccc32)cc1 [TBPT, 6-(p-tolyl)benzo[f] pyrido[2,3-b][1,4] thiazepine 11,11-dioxide]",remaining binding at 5 µM,[1]; 5 μM,100%
same,remaining binding at 10 µM,[1]; 10 μM,100%
same,remaining binding at 5 µM,INSRR; 5 μM,100%
same,remaining binding at 10 µM,INSRR; 10 μM,100%
same,remaining binding at 5 µM,PIK3CA(H1047L); 5 μM,100%
same,remaining binding at 10 µM,PIK3CA(H1047L); 10 μM,100%
same,remaining binding at 5 µM,CAMK2A; 5 μM,100%
same,remaining binding at 10 µM,CAMK2A; 10 μM,87%
same,remaining binding at 5 µM,EPHB6; 5 μM,99%
same,remaining binding at 10 µM,EPHB6; 10 μM,100%
same,remaining binding at 5 µM,KIT(D816V); 5 μM,62%
same,remaining binding at 10 µM,KIT(D816V); 10 μM,99%
same,remaining binding at 5 µM,STK39; 5 μM,100%
same,remaining binding at 10 µM,STK39; 10 μM,62%
same,remaining binding at 5 µM,PRKCI; 5 μM,95%
same,remaining binding at 10 µM,PRKCI; 10 μM,91%
same,remaining binding at 5 µM,PIM2; 5 μM,100%
same,remaining binding at 10 µM,PIM2; 10 μM,100%
same,remaining binding at 5 µM,CLK4; 5 μM,93%
same,remaining binding at 10 µM,CLK4; 10 μM,96%
same,remaining binding at 5 µM,YSK4; 5 μM,98%
same,remaining binding at 10 µM,YSK4; 10 μM,98%
same,remaining binding at 5 µM,PCTK3; 5 μM,82%
same,remaining binding at 10 µM,PCTK3; 10 μM,100%
same,remaining binding at 5 µM,p38-delta; 5 μM,75%
same,remaining binding at 10 µM,p38-delta; 10 μM,65%
same,remaining binding at 5 µM,ERBB3; 5 μM,45%
same,remaining binding at 10 µM,ERBB3; 10 μM,100%
same,remaining binding at 5 µM,ULK3; 5 μM,100%
same,remaining binding at 10 µM,ULK3; 10 μM,100%
same,remaining binding at 5 µM,JNK2; 5 μM,99%
same,remaining binding at 10 µM,JNK2; 10 μM,100%
same,remaining binding at 5 µM,PIK3CD; 5 μM,94%
same,remaining binding at 10 µM,PIK3CD; 10 μM,100%
same,remaining binding at 5 µM,CTK; 5 μM,94%
same,remaining binding at 10 µM,CTK; 10 μM,100%
same,remaining binding at 5 µM,STK33; 5 μM,99%
same,remaining binding at 10 µM,STK33; 10 μM,100%
same,remaining binding at 5 µM,DAPK1; 5 μM,83%
same,remaining binding at 10 µM,DAPK1; 10 μM,100%
same,remaining binding at 5 µM,CAMK2G; 5 μM,100%
same,remaining binding at 10 µM,CAMK2G; 10 μM,96%
same,remaining binding at 5 µM,FLT3(R834Q); 5 μM,89%
same,remaining binding at 10 µM,FLT3(R834Q); 10 μM,100%
same,remaining binding at 5 µM,PIK4CB; 5 μM,100%
same,remaining binding at 10 µM,PIK4CB; 10 μM,93%
same,remaining binding at 5 µM,MST4; 5 μM,63%
same,remaining binding at 10 µM,MST4; 10 μM,99%
same,remaining binding at 5 µM,GAK; 5 μM,100%
same,remaining binding at 10 µM,GAK; 10 μM,90%
same,remaining binding at 5 µM,FLT3; 5 μM,100%
same,remaining binding at 10 µM,FLT3; 10 μM,68%
same,remaining binding at 5 µM,SGK3; 5 μM,100%
same,remaining binding at 10 µM,SGK3; 10 μM,99%
same,remaining binding at 5 µM,PLK1; 5 μM,76%
same,remaining binding at 10 µM,PLK1; 10 μM,80%
same,remaining binding at 5 µM,RIOK3; 5 μM,100%
same,remaining binding at 10 µM,RIOK3; 10 μM,100%
same,remaining binding at 5 µM,LIMK1; 5 μM,100%
same,remaining binding at 10 µM,LIMK1; 10 μM,100%
